# Experimental data: patent US20110039762A1, “TARGETED ANTIMICROBIAL MOIETIES” (C3 JIAN, INC., priority 2009, published 2011)
# Entries after “also recorded” stand apart in the source; their conditions may differ.
# Columns and labels:
# [1] = system: microorganisms (e.g., bacteria, yeasts, fungi); experiment: Targeting peptide binding to target microorganisms (Table 3); conditions: preferably 1x PBS; for Target(s) (microorganisms bound by the targeting peptide): peptide binding in aqueous buffers varied by peptide solubility
# [2] = system: S. mutans; experiment: Kill or inhibit growth/proliferation; morphology, biofilm and growth disruption (Tables 5, 6); format: cell-based, Streptococcus mutans; set-up: key: A: Peptide aggregates; B: Less hyphal formation; Clumps; Diffuse clumps and small polyps; F: Diffuse growth; H: Thin; I: Growth inhibition; Microcolony formation; Rippled; Small polyps; Thick; W: Halo formation on top, microlonies on bottom; note: test concentration or dose not given here
# [3] = system: microorganisms; experiment: Peptides having multiple activities (targeting/binding, antimicrobial, growth or phenotype altering)
# Excerpt: In certain embodiments, peptides described herein can have multiple activities. Thus for example, a peptide can have both binding/targeting activity and antimicrobial activity. Such peptides can be used, e.g., in a chimeric construct, for any or all of these properties. Thus, for example, a peptide designated “B” in Table 8 can be used as a targeting peptide. If it is also designated G or M it can also be used for antimicrobial activity.
# [4] = system: S. epidermidis; experiment: Kill or inhibit growth/proliferation; morphology, biofilm and growth disruption (Tables 5, 6); format: cell-based, Staphylococcus epidermidis; set-up: key: A: Peptide aggregates; B: Less hyphal formation; Clumps; Diffuse clumps and small polyps; F: Diffuse growth; H: Thin; I: Growth inhibition; Microcolony formation; Rippled; Small polyps; Thick; W: Halo formation on top, microlonies on bottom; note: test concentration or dose not given here
# [5] = system: S. pneumoniae; experiment: as above; format: cell-based, Streptococcus pneumoniae; set-up: key: A: Peptide aggregates; B: Less hyphal formation; Clumps; Diffuse clumps and small polyps; F: Diffuse growth; H: Thin; I: Growth inhibition; Microcolony formation; Rippled; Small polyps; Thick; W: Halo formation on top, microlonies on bottom; note: test concentration or dose not given here
# [6] = system: B. subtilis; experiment: as above; format: cell-based, Bacillus subtilis; set-up: key: A: Peptide aggregates; B: Less hyphal formation; Clumps; Diffuse clumps and small polyps; F: Diffuse growth; H: Thin; I: Growth inhibition; Microcolony formation; Rippled; Small polyps; Thick; W: Halo formation on top, microlonies on bottom; note: test concentration or dose not given here
# [7] = system: M. luteus; experiment: as above; format: cell-based, Micrococcus luteus; set-up: key: A: Peptide aggregates; B: Less hyphal formation; Clumps; Diffuse clumps and small polyps; F: Diffuse growth; H: Thin; I: Growth inhibition; Microcolony formation; Rippled; Small polyps; Thick; W: Halo formation on top, microlonies on bottom; note: test concentration or dose not given here
# [8] = system: MRSA; experiment: as above; format: cell-based, Methicillin-resistant Staphylococcus aureus; set-up: key: A: Peptide aggregates; B: Less hyphal formation; Clumps; Diffuse clumps and small polyps; F: Diffuse growth; H: Thin; I: Growth inhibition; Microcolony formation; Rippled; Small polyps; Thick; W: Halo formation on top, microlonies on bottom; note: test concentration or dose not given here
# [9] = system: C. albicans; experiment: as above; format: cell-based, Candida albicans; set-up: key: A: Peptide aggregates; B: Less hyphal formation; Clumps; Diffuse clumps and small polyps; F: Diffuse growth; H: Thin; I: Growth inhibition; Microcolony formation; Rippled; Small polyps; Thick; W: Halo formation on top, microlonies on bottom; note: test concentration or dose not given here
# [10] = system: C. jejuni; experiment: as above; format: cell-based, Campylobacter jejuni; set-up: key: A: Peptide aggregates; B: Less hyphal formation; Clumps; Diffuse clumps and small polyps; F: Diffuse growth; H: Thin; I: Growth inhibition; Microcolony formation; Rippled; Small polyps; Thick; W: Halo formation on top, microlonies on bottom; note: test concentration or dose not given here
# [11] = system: E. faecalis; experiment: as above; format: cell-based, Enterococcus faecalis; set-up: key: A: Peptide aggregates; B: Less hyphal formation; Clumps; Diffuse clumps and small polyps; F: Diffuse growth; H: Thin; I: Growth inhibition; Microcolony formation; Rippled; Small polyps; Thick; W: Halo formation on top, microlonies on bottom; note: test concentration or dose not given here
# [12] = system: C. jeikeium; experiment: as above; format: cell-based, Corynebacterium jeikeium; set-up: key: A: Peptide aggregates; B: Less hyphal formation; Clumps; Diffuse clumps and small polyps; F: Diffuse growth; H: Thin; I: Growth inhibition; Microcolony formation; Rippled; Small polyps; Thick; W: Halo formation on top, microlonies on bottom; note: test concentration or dose not given here
# [13] = microorganism the targeting peptide binds, binding in aqueous buffers varied by peptide solubility
substance,measurement,setting,value
GNVHPESDFHNLIQFIKTFLYFTIFFKYFL [PF-C290],Target(s) (microorganisms bound by the targeting peptide),[1],A. naeslundii; also recorded: F. nucleatum; also recorded: P. gingivalis; also recorded: S. mutans; also recorded: T. denticola
same,"Organism, effect (morphology, biofilm and growth disruption)",[2],S. mutans (F)
same,Activities,[3],G B
HCVIGNVVDIANLLKRRAVYRDIADVIKMR [PF-071],"Organism, effect",[4],S. epidermidis (R)
same,Target(s),[1]; [13],S. epidermidis and E. coli and P. aeruginosa and C. albicans and MRSA and S. pneumoniae and E. faecalis
same,"Organism, effect",[5],S. pneumoniae (A)
same,"Organism, effect",[6],B. subtilis (D)
same,"Organism, effect",[7],M. luteus (R)
same,"Organism, effect",[8],MRSA (C)
same,"Organism, effect",[9],C. albicans (B)
same,Activities,[3],G B
same,"Organism, effect",[10],C. jejuni (A)
KKFKIFVIINWFYHKYIILNFEENF [PF-C085],Target(s) (microorganisms bound by the targeting peptide),[1],A. naeslundii; also recorded: F. nucleatum; also recorded: P. gingivalis; also recorded: S. mutans; also recorded: T. denticola
same,"Organism, effect (morphology, biofilm and growth disruption)",[2],S. mutans (F)
same,Activities,[3],G B
PF-020: peptide having multiple activities (chain 1 MKIILLLFLIFGFIVVVTLKSEHQLTLFSI; chain 2 MKIILLLFLIFGFIVVVTLKSEHQLTLFSI; Peptide with targeting and/or antimicrobial activity),"Organism, effect",[4],S. epidermidis (C)
same,Target(s),[1]; [13],S. epidermidis and M. luteus and C. albicans and MRSA and S. pneumoniae and E. faecalis
same,"Organism, effect",[5],S. pneumoniae (D)
same,"Organism, effect",[7],M. luteus (C)
same,"Organism, effect",[2],S. mutans (F)
same,"Organism, effect",[8],MRSA (C)
same,Activities,[3],G B
PF-175: peptide having multiple activities (RRRPAGQRPEKASQAMIAA; Peptide with targeting and/or antimicrobial activity),Target(s),"[1]; microorganism(s) the targeting peptide binds, binding in aqueous buffers depending on peptide solubility",S. epidermidis; also recorded: E. faecalis
same,"Organism, effect",[5],S. pneumoniae (A)
same,"Organism, effect",[6],B. subtilis (D)
same,"Organism, effect",[7],M. luteus (S)
same,"Organism, effect",[9],C. albicans (B)
same,Activities,[3],G B
same,"Organism, effect",[10],C. jejuni (M)
PF-632: peptide having multiple activities (chain 1 TTIQGVASLEKHGFRYTIIYPTRI; chain 2 TTIQGVASLEKHGFRYTIIYPTRI; Peptide with targeting and/or antimicrobial activity),"Organism, effect",[4],S. epidermidis (D)
same,Target(s) (microorganisms bound by the targeting peptide),[1],S. epidermidis and P. aeruginosa and C. albicans and MRSA and S. pneumoniae and E. faecalis and C. jeikeium
same,"Organism, effect",[5],S. pneumoniae (M)
same,"Organism, effect",[6],B. subtilis (H)
same,"Organism, effect",[8],MRSA (D)
same,"Organism, effect",[11],E. faecalis (D)
same,"Organism, effect",[12],C. jeikeium (D)
same,"Organism, effect",[9],C. albicans (B)
same,Activities,[3],G B
PF-668 (chain 1 TNAESMALAFRGRVHMSVNIAGLT; chain 2 TNAESMALAFRGRVHMSVNIAGLT; Peptide with targeting and/or antimicrobial activity),"Organism, effect (morphology, biofilm and growth disruption)",[4],S. epidermidis (M)
same,Target(s) (microorganisms bound by the targeting peptide),[1],Mycobacteria spp
same,"Organism, effect (morphology, biofilm and growth disruption)",[5],S. pneumoniae (M)
same,"Organism, effect (morphology, biofilm and growth disruption)",[6],B. subtilis (A)
same,"Organism, effect (morphology, biofilm and growth disruption)",[8],MRSA (R)
same,"Organism, effect (morphology, biofilm and growth disruption)",[11],E. faecalis (D)
same,"Organism, effect (morphology, biofilm and growth disruption)",[12],C. jeikeium (D)
same,"Organism, effect (morphology, biofilm and growth disruption)",[9],C. albicans (A)
PF-686: peptide having multiple activities (chain 1 LAVLMGYIGYRGWSGKRHINRQ; chain 2 LAVLMGYIGYRGWSGKRHINRQ; Peptide with targeting and/or antimicrobial activity),"Organism, effect (morphology, biofilm and growth disruption)",[4],S. epidermidis (H)
same,Target(s) (microorganisms bound by the targeting peptide),[1],M. smegmatis
same,"Organism, effect (morphology, biofilm and growth disruption)",[5],S. pneumoniae (A)
same,"Organism, effect (morphology, biofilm and growth disruption)",[6],B. subtilis (I)
same,"Organism, effect (morphology, biofilm and growth disruption)",[8],MRSA (M)
same,"Organism, effect (morphology, biofilm and growth disruption)",[11],E. faecalis (R)
same,"Organism, effect (morphology, biofilm and growth disruption)",[9],C. albicans (B)
same,Activities,[3],G B
PF-C057: peptide having multiple activities (YFWWYWVQDCIPYKNNEVWLELSNNMK; Peptide with targeting and/or antimicrobial activity),Target(s) (microorganisms bound by the targeting peptide),[1],A. naeslundii; also recorded: F. nucleatum; also recorded: P. gingivalis; also recorded: S. mutans
same,"Organism, effect (morphology, biofilm and growth disruption)",[2],S. mutans (I)
same,Activities,[3],G B
PF-C139: peptide having multiple activities (LLASHPERLSLGVFFVYRVLHLLLENT; Peptide with targeting and/or antimicrobial activity),Target(s) (microorganisms bound by the targeting peptide),[1],A. naeslundii; also recorded: F. nucleatum; also recorded: P. gingivalis; also recorded: S. mutans; also recorded: T. denticola
same,"Organism, effect (morphology, biofilm and growth disruption)",[2],S. mutans (F)
same,Activities,[3],G B
PF-C142: peptide having multiple activities (DFPPLSFFRRRFHAYTAPIDNFFGANPF; Peptide with targeting and/or antimicrobial activity),Target(s) (microorganisms bound by the targeting peptide),[1],A. naeslundii; also recorded: F. nucleatum; also recorded: P. gingivalis; also recorded: S. mutans; also recorded: T. denticola
same,"Organism, effect (morphology, biofilm and growth disruption)",[2],S. mutans (I)
same,Activities,[3],G B
PF-C281: peptide having multiple activities (KKEKLLTAIRLQHRAEIRGYFTIFFLFFRI; Peptide with targeting and/or antimicrobial activity),Target(s) (microorganisms bound by the targeting peptide),[1],A. naeslundii; also recorded: F. nucleatum; also recorded: P. gingivalis; also recorded: S. mutans; also recorded: T. denticola
same,"Organism, effect (morphology, biofilm and growth disruption)",[2],S. mutans (F)
same,Activities,[3],G B
